Measured values from patent US11360010B1, “Methods and device for controlled cell stretch and imaging” (The Regents of the University of Colorado, a body, priority 2019, dated 2022).
“Also recorded” adds a separate entry of the source.

Tests used:
Format in all cases: cell-based
[1] = system: mouse embryonic skin fibroblasts (MSFs); assay: Nuclear strain transfer from membrane to nucleus after cyclic stretch; settings: after 30 min of 20% cyclic strain; relaxed vs stretched images; cytochalasin D 2 μM vs NT cells
Description: Transgenic mice harboring a fluorescence tag at the H2b histone—B6.Cg-Tg (HIST1H2BB/EGFP) 1 Pa/J, Stock No: 006069—were obtained from Jackson Laboratory (Bar Harbor, Me.). All animal procedures were performed following Institutional Animal Care & Use Committee approval. Skin from embryonic mice was harvested 18.5 days post-conception. Skin was minced, washed with Hank's Balanced Salt Solution (HBSS), and incubated in 35 mm dishes in shallow medium (˜0.5 mL) to avoid floating of the tissue for 4 days, during which fibroblasts extruded from the tissue. After 4 days, remaining tissue was removed (picked out with a pipette), and extruded cells in the dish were detached using TrypLE (Gibco, Gaithersburg, Md.) and expanded in culture for another 2 days before being seeded into stretch chambers for experiments. […] To test the use of chromatin dyes, cells were stained with Hoechst (NucBlue Live ReadyProbes; Life Technologies) 30 min before experiments. […]
To analyze the amount of strain transferred from the membrane to the nucleus after cyclic stretch routines, image stacks of nuclei were acquired under relaxed or stretched conditions, and bulk nuclear strain was calculated from the change in nuclear area using the same MATLAB script as above. Note that nuclear strain transfer could not be accurately analyzed before stretch routines because of the fast response in area decline.

[2] = system: mouse embryonic skin fibroblasts (MSFs); assay: Live imaging of nuclear area and chromatin condensation (H2b-eGFP) during cyclic stretch routines; settings: BAPTA 50 μM, KN-62 10 μM, cytochalasin D 2 μM
Description: (§1) Transgenic mice harboring a fluorescence tag at the H2b histone—B6.Cg-Tg (HIST1H2BB/EGFP) 1 Pa/J, Stock No: 006069—were obtained from Jackson Laboratory (Bar Harbor, Me.). All animal procedures were performed following Institutional Animal Care & Use Committee approval. Skin from embryonic mice was harvested 18.5 days post-conception. Skin was minced, washed with Hank's Balanced Salt Solution (HBSS), and incubated in 35 mm dishes in shallow medium (˜0.5 mL) to avoid floating of the tissue for 4 days, during which fibroblasts extruded from the tissue. After 4 days, remaining tissue was removed (picked out with a pipette), and extruded cells in the dish were detached using TrypLE (Gibco, Gaithersburg, Md.) and expanded in culture for another 2 days before being seeded into stretch chambers for experiments. The inner well of assembled stretch chambers was ozone activated for 30 s via corona arc discharge (BD-20; Electro-Technic Products) and coated with 50 μg/mL bovine plasma fibronectin (F1141; Sigma-Aldrich) in a total volume of 250 μL overnight at 37° C. Mouse embryonic skin fibroblasts (MSFs) were seeded into stretch chambers at a density of 80,000 cells/cm′ 1 day before experiments. MSFs were extruded and cultured in DMEM (ATCC, Manassas, Va.) containing 10% fetal bovine serum (Gibco), 1% penicillin-streptomycin (Gibco), and 25 mM HEPES (Gibco) at 37° C. and 5% CO2. To inhibit calcium signaling, MSFs were incubated with 50 μM BAPTA (A4926; Sigma-Aldrich) or 10 μM KN-62 (12142; Sigma-Aldrich) 1 h before cyclic strain experiments. To disrupt actin polymerization, MSFs were incubated with 2 μM cytochalasin D (C8273; Sigma-Aldrich) 30 min before experiments. Vehicle controls were incubated with 0.001% DMSO (276855; Sigma-Aldrich) 1 h before experiments. To test the use of chromatin dyes, cells were stained with Hoechst (NucBlue Live ReadyProbes; Life Technologies) 30 min before experiments. Stretch experiments were performed at 25° C. (room temperature) under humidified conditions.
The stretch device was mounted on an inverted epi-fluorescence microscope (Ti-Eclipse; Nikon) with a 60× water immersion objective (0.26 μm/pixel) and an EMCCD camera (iXonEM+; Andor Technology). The surrounding of the microscope was humidified to prevent the water on the objective from evaporating during the 1 h experiment. Oil immersion is also possible, but water immersion provided better image quality with the silicone membranes used.
Using MATLAB, a sinusoidal control signal (1 Hz) was sent to the Arduino controller, resulting in a cyclic stretch routine of the membrane (FIG. 1C), with peak strains set to 5% (−0.1 V), 10% (−0.9 V), and 20% (−2.25 V) as determined by the calibration curve. Cells were cyclically stretched for 30 min, followed by 30 min of rest, during which 2 μm z-stacks (0.5 μm steps) of nuclei were acquired. During the rest period, cells experienced no stretch but a constant magnetic field using the offset Arduino input voltage (0.8 V) that keeps the piston suspended at 0% stretch. For acquisition, the cyclic stretch routine was paused for 1 min to allow for a steady imaging plane and fine readjustments in z-position due to water evaporation. Unstretched control cells (0%) were seeded into stretch chambers but kept stationary on the microscope without any magnetic field applied. Unstretched magnetic control cells (MAG) were placed stationary inside the coil without the piston, and a magnetic field corresponding to a 20% sinusoidal stretch routine was applied.
A custom MATLAB code was used to track nuclear outlines via H2b-eGFP and to generate H2b intensity histograms during an image series, from which changes in nuclear area, H2b skewness, and H2b kurtosis were calculated.

[3] = system: mouse embryonic skin fibroblasts (MSFs); assay: Perinuclear F-actin and γH2a.x staining after cyclic stretch routines; settings: cytochalasin D 2 μM
Description: as §1
MSFs were fixed in 4% ice-cold paraformaldehyde (PFA) for 10 min, permeabilized with 1% Triton-X100 in phosphate-buffered saline for 15, min and blocked with 10% NGS, 1% bovine serum albumin in 0.1% PBT (0.1% Tween-20 in phosphate-buffered saline) for 60 min. Primary incubation of Phospho-Histone H2A.X Ser139 (9718S; Cell Signaling Technology, Danvers, Mass.) was performed at 4° C. overnight in 0.1% PBT containing 1% bovine serum albumin at 1:400. Secondary incubation of goat anti-rabbit IgG-AF546 (Life Technologies) was performed in primary incubation buffer for 45 min at 22° C. at a dilution of 1:500. F-actin was counterstained with phalloidin-CF405 (Biotium, Fremont, Calif.) for 30 min at a dilution of 1:30. Staining was performed in containment wells. After staining, membranes were cut out of the containment well using a circular punch and mounted cell-side up onto #1.0 glass slides with ProLong Diamond Antifade Mountant (Life Technologies). Image stacks (5 μm, 1 μm step) of multiple nuclei in a 318×318 μm area were acquired on a Nikon MR confocal microscope using a 40× oil immersion objective (0.31 μm/pixel). A custom MATLAB code was used to track nuclear outlines via H2b-eGFP and to quantify perinuclear F-actin intensities and γH2a.x foci in projected image stacks. Only the projected F-actin within the nuclear outline (apical perinuclear F-actin) was counted in this analysis. To account for variations in staining and imaging (the same imaging settings were used), fluorescence channels were histogram normalized. Perinuclear F-actin intensities were calculated as the sum of normalized phalloidin intensities within a nuclear border. DNA damage foci were determined by detecting 2D peaks in the normalized γH2a.x channel using the MATLAB script FastPeakFind (v. 1.7).

[4] = static magnetic-field-only routine (MAG), no stretch
[5] = after 30 min 5% cyclic stretch, vs NT or VH control cells, BAPTA 50 μM, KN-62 10 μM
[6] = after 30 min 5% cyclic stretch, vs NT or VH control cells, BAPTA 50 μM, KN-62 10 μM, listed as CD
[7] = after 30 min 20% cyclic stretch, vs NT or VH control cells, BAPTA 50 μM, KN-62 10 μM
[8] = after 30 min 20% cyclic stretch, vs NT or VH control cells, BAPTA 50 μM, KN-62 10 μM, listed as CD

C=C1[C@@H](C)[C@H]2[C@H](Cc3ccccc3)NC(=O)[C@]23[C@H](OC(C)=O)/C=C/[C@@](C)(O)C(=O)[C@@H](C)C/C=C/[C@H]3[C@@H]1O [cyto D, cytochalasin D]
strain transferred from membrane to nuclei (nuclear strain) [1]: higher nuclear strains; also recorded: increase
change in nuclear area ([2]; 30 min 5% cyclic strain, 1 Hz, vs NT/VH cells (area increases)): abrogated the increase in nuclear area
change in nuclear area ([2]; 30 min 5% cyclic strain, 1 Hz, vs NT/VH cells (area increases), listed as CD): inhibited changes in nuclear area
chromatin condensation (H2b histogram kurtosis and skewness) ([2]; 30 min 5% cyclic strain, 1 Hz, vs NT/VH cells (condensation decreases)): distinctly increased chromatin condensation
chromatin condensation (H2b histogram kurtosis and skewness) ([2]; 30 min 5% cyclic strain, 1 Hz, vs NT/VH cells (condensation decreases), listed as CD): inhibited changes in nuclear area and chromatin condensation
change in nuclear area ([2]; 30 min 20% cyclic strain, 1 Hz, vs NT/VH cells (area decreases)): inhibited nuclear shrinkage
change in nuclear area ([2]; 30 min 20% cyclic strain, 1 Hz, vs NT/VH cells (area decreases), listed as CD): inhibited changes in nuclear area
chromatin condensation (H2b histogram kurtosis and skewness) ([2]; 30 min 20% cyclic strain, 1 Hz, vs NT/VH cells (condensation increases)): inhibited nuclear shrinkage and chromatin condensation
chromatin condensation (H2b histogram kurtosis and skewness) ([2]; 30 min 20% cyclic strain, 1 Hz, vs NT/VH cells (condensation increases), listed as CD): inhibited changes in nuclear area and chromatin condensation
change in nuclear area [2, 4]: showed no effect
chromatin condensation (H2b histogram kurtosis and skewness) [2, 4]: showed no effect
number of γH2a.x foci per nucleus (DNA damage, double-strand breaks) [3, 5]: distinctly increased
perinuclear F-actin intensities [3, 5]: increased
number of γH2a.x foci per nucleus (DNA damage, double-strand breaks) [3, 6]: increased number of foci
perinuclear F-actin intensities [3, 6]: altered F-actin intensities
number of γH2a.x foci per nucleus (DNA damage, double-strand breaks) [3, 7]: distinctly increased
perinuclear F-actin intensities [3, 7]: abrogated
number of γH2a.x foci per nucleus (DNA damage, double-strand breaks) [3, 8]: increased number of foci
perinuclear F-actin intensities [3, 8]: altered F-actin intensities
perinuclear F-actin intensities ([3]; after magnetic-field-only routine (MAG)): showed no effect
number of γH2a.x foci per nucleus (DNA damage, double-strand breaks) ([3]; static magnetic-field-only controls (MAG), BAPTA 50 μM, KN-62 10 μM): had no effect
